Experimental data from publication PMC9953315, “Cytochrome P450 Surface Domains Prevent the β-Carotene Monohydroxylase CYP97H1 of Euglena gracilis from Acting as a Dihydroxylase” (Biomolecules, 2023).

Columns and labels:
Test in all cases: in vivo carotenoid production in E. coli, HPLC-DAD and LC-MS
Format in all cases: cell-based
tCYP97H1 [1] = biological target: T1, tCYP97H1 (Euglena gracilis, UniProt A0A1Y1C5R9, F246A); conditions: beta-carotene producing E. coli, S. oleracea ferredoxin / ferredoxin reductase co-expressed; product beta-cryptoxanthin
T1 construct: gene CYP97H1; plastid signal M1-L116 deleted; E. coli codon optimised; expressed in beta-carotene producing E. coli with Spinacia oleracea ferredoxin / ferredoxin reductase
T1 sequence (A0A1Y1C5R9 entry or part of it F246A): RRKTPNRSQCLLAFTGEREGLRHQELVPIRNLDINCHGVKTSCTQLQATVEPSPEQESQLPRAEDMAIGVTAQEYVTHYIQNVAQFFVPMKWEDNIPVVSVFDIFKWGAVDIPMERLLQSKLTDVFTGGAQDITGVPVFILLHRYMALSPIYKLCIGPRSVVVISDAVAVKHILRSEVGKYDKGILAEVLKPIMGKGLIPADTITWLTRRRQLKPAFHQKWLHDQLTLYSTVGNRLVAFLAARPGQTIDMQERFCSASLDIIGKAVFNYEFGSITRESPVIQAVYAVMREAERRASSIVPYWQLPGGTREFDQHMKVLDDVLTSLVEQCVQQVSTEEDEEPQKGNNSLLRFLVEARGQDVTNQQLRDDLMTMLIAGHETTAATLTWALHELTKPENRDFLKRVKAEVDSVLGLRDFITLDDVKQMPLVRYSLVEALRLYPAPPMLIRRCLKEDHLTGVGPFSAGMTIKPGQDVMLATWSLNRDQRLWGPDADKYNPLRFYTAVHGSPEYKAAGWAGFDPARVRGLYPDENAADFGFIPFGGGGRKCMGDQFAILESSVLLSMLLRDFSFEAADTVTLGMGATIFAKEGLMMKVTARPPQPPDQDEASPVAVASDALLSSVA

tCYP97H1 [2] = biological target: T2, tCYP97H1 (Euglena gracilis, UniProt A0A1Y1C5R9, F242A); conditions: beta-carotene producing E. coli, S. oleracea ferredoxin / ferredoxin reductase co-expressed; product beta-cryptoxanthin
T2 construct: gene CYP97H1; plastid signal M1-L116 deleted; E. coli codon optimised; expressed in beta-carotene producing E. coli with Spinacia oleracea ferredoxin / ferredoxin reductase
T2 sequence (A0A1Y1C5R9 entry or part of it F242A): as the sequence (A0A1Y1C5R9 entry or part of it F246A) above, with F126A, A130F counted along it

tCYP97H1 [3] = biological target: T3, tCYP97H1 (Euglena gracilis, UniProt A0A1Y1C5R9, F221A); conditions: beta-carotene producing E. coli, S. oleracea ferredoxin / ferredoxin reductase co-expressed; product beta-cryptoxanthin
T3 construct: gene CYP97H1; plastid signal M1-L116 deleted; E. coli codon optimised; expressed in beta-carotene producing E. coli with Spinacia oleracea ferredoxin / ferredoxin reductase
T3 sequence (A0A1Y1C5R9 entry or part of it F221A): as the sequence (A0A1Y1C5R9 entry or part of it F246A) above, with F105A, A130F counted along it

tCYP97A3At = biological target: T4, tCYP97A3At (Arabidopsis thaliana, UniProt Q93VK5); conditions: beta-carotene producing E. coli, S. oleracea ferredoxin / ferredoxin reductase co-expressed, product beta-cryptoxanthin
T4 construct: gene CYP97A3; first 77 residues deleted, no MBP tag; expressed in beta-carotene producing E. coli with Spinacia oleracea ferredoxin / ferredoxin reductase
T4 sequence (Q93VK5 78-595): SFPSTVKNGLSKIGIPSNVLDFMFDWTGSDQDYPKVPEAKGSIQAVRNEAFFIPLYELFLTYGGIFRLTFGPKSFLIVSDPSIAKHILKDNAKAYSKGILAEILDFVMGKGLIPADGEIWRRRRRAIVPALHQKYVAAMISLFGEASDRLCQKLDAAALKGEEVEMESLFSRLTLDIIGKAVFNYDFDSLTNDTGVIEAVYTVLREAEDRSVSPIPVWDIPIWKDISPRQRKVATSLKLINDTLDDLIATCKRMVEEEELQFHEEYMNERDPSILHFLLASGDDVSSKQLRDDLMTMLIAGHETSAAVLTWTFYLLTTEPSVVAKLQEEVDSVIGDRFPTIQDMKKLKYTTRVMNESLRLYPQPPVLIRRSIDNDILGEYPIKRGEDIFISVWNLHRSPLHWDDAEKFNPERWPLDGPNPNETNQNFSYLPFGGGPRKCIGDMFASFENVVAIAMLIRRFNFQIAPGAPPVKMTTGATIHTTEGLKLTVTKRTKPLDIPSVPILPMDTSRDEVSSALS

tCYP97H1 [4] = biological target: T5, tCYP97H1 (Euglena gracilis, UniProt A0A1Y1C5R9); conditions: beta-carotene producing E. coli, S. oleracea ferredoxin / ferredoxin reductase co-expressed, product beta-cryptoxanthin
T5 construct: gene CYP97H1; plastid signal M1-L116 deleted; E. coli codon optimised; expressed in beta-carotene producing E. coli with Spinacia oleracea ferredoxin / ferredoxin reductase
T5 sequence (A0A1Y1C5R9 entry or part of it): as the sequence (A0A1Y1C5R9 entry or part of it F246A) above, with A130F counted along it

tCYP97H1 [5] = biological target: T6, tCYP97H1 (Euglena gracilis, UniProt A0A1Y1C5R9, F218A); conditions: beta-carotene producing E. coli, S. oleracea ferredoxin / ferredoxin reductase co-expressed, product beta-cryptoxanthin
T6 construct: gene CYP97H1; plastid signal M1-L116 deleted; E. coli codon optimised; expressed in beta-carotene producing E. coli with Spinacia oleracea ferredoxin / ferredoxin reductase
T6 sequence (A0A1Y1C5R9 entry or part of it F218A): as the sequence (A0A1Y1C5R9 entry or part of it F246A) above, with F102A, A130F counted along it

[6] = beta-cryptoxanthin formed in situ, side product zeaxanthin

SMILES | in vivo carotenoid production in E. coli, HPLC-DAD and LC-MS (tCYP97H1 [1]) | in vivo carotenoid production in E. coli, HPLC-DAD and LC-MS (tCYP97H1 [2]) | in vivo carotenoid production in E. coli, HPLC-DAD and LC-MS (tCYP97H1 [3]) | in vivo carotenoid production in E. coli, HPLC-DAD and LC-MS (tCYP97A3At) | in vivo carotenoid production in E. coli, HPLC-DAD and LC-MS (tCYP97H1 [4]) | in vivo carotenoid production in E. coli, HPLC-DAD and LC-MS (tCYP97H1 [5]) | in vivo carotenoid production in E. coli, HPLC-DAD and LC-MS (tCYP97A3At; beta-cryptoxanthin formed in situ, product zeaxanthin) | in vivo carotenoid production in E. coli, HPLC-DAD and LC-MS (tCYP97H1 [4]; [6]) | in vivo carotenoid production in E. coli, HPLC-DAD and LC-MS (tCYP97H1 [5]; [6])
CC1=C(/C=C/C(C)=C/C=C/C(C)=C/C=C/C=C(C)/C=C/C=C(C)/C=C/C2=C(C)CCCC2(C)C)C(C)(C)CCC1 [β-carotene] | All these single mutants exhibited reduced β-cryptoxanthin production | All these single mutants exhibited reduced β-cryptoxanthin production | All these single mutants exhibited reduced β-cryptoxanthin production | production of a small amount of hydroxylated β-carotene in vivo | the deletion of the plastid peptide signal from residue M1 to L116 improved activity | All these single mutants exhibited reduced β-cryptoxanthin production |  |  | 
CC1=C(/C=C/C(C)=C/C=C/C(C)=C/C=C/C=C(C)/C=C/C=C(C)/C=C/C2=C(C)C[C@@H](O)CC2(C)C)C(C)(C)CCC1 [β-cryptoxanthin] |  |  |  |  |  |  | β-cryptoxanthin and zeaxanthin detection were confirmed by mass spectrometry in the strain ETL154, expressing CYP97A3 | A small side production of zeaxanthin was detected with CYP97H1 and the F105A mutant | the zeaxanthin:β-cryptoxanthin ratio was displaced in favour of zeaxanthin
